Assay results reported in ChEMBL document CHEMBL5352492, “Application of deep generative model for design of Pyrrolo[2,3-d] pyrimidine derivatives as new selective TANK binding kinase 1 (TBK1) inhibitors” (Eur J Med Chem, 2023).
Active and inactive are the calls of the source. The rule behind the calls is not given here.

What was measured:
[1] = target: T1, Serine/threonine-protein kinase TBK1 (Homo sapiens) (UniProt Q9UHD2); assay: Inhibition of TBK1 (unknown origin) incubated at 1000 nM for 1 hr in presence of ATP by FRET based Z'-Lyte assay relative to control
T1 sequence (whole entry): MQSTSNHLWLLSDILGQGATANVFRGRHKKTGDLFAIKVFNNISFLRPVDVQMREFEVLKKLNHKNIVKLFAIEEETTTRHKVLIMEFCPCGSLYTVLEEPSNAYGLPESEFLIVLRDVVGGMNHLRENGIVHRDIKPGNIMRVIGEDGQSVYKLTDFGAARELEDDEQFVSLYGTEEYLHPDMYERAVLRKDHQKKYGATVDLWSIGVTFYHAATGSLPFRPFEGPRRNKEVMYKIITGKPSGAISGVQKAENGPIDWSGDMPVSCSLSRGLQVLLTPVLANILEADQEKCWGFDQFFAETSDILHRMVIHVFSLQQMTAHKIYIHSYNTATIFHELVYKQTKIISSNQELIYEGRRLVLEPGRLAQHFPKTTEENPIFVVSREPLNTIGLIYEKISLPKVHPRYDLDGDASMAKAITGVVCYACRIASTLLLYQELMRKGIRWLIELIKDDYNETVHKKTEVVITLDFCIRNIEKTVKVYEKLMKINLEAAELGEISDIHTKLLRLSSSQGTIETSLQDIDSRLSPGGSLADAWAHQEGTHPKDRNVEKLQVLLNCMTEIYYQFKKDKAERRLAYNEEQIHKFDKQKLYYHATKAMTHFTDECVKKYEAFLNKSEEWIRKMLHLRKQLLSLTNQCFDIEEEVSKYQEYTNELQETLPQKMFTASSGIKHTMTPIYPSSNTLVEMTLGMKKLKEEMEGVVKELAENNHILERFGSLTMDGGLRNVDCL

[2] = target: T1, Serine/threonine-protein kinase TBK1 (Homo sapiens); assay: Inhibition of TBK1 (unknown origin) incubated at 100 nM for 1 hr in presence of ATP by FRET based Z'-Lyte assay relative to control
[3] = target: T1, Serine/threonine-protein kinase TBK1 (Homo sapiens); assay: Inhibition of TBK1 (unknown origin) incubated at 10 nM for 1 hr in presence of ATP by FRET based Z'-Lyte assay relative to control
[4] = test system: THP1-Blue ISG; assay: Inhibition of LPS-induced ifn-beta in human THP1-Blue ISG cells treated at 1 uM for 2 hrs RTq-PCR analysis; format: functional, cell-based
[5] = test system: THP1-Blue ISG; assay: Inhibition of LPS-induced cxcl10 in human THP1-Blue ISG cells treated at 1 uM for 2 hrs RTq-PCR analysis; format: functional, cell-based
[6] = test system: RAW264.7; assay: Inhibition of LPS-induced ifn-beta in mouse RAW264.7 cells treated at 1 uM for 2 hrs RTq-PCR analysis; format: functional, cell-based
[7] = test system: RAW264.7; assay: Inhibition of LPS-induced cxcl10 in mouse RAW264.7 cells treated at 1 uM for 2 hrs RTq-PCR analysis; format: functional, cell-based
[8] = target: T2, Serine/threonine-protein kinase TBK1 (Homo sapiens, UniProt Q9UHD2); assay: Inhibition of TBK1 (unknown origin) incubated for 1 hr in presence of ATP by FRET based Z'-Lyte assay
T2 sequence (Q9UHD2 whole entry): T1 sequence (whole entry)

| SMILES | inhibition [1] [%] | inhibition [2] [%] | inhibition [3] [%] | inhibition [4] | inhibition [5] | inhibition [6] | inhibition [7] | IC50 [8] [nM] |
| --- | --- | --- | --- | --- | --- | --- | --- | --- |
| N#Cc1cn(CCCNC(=O)C2CCC2)c2nc(Nc3cccc(CN4CCOCC4)c3)ncc12 | 26.4 | < 0 | < 0 | – | – | – | – | – |
| O=C(Nc1cccc(Cn2ccc3cnc(Nc4cccc(CN5CCOCC5)c4)nc32)c1)C1CCC1 | < 0 | < 0 | < 0 | – | – | – | – | – |
| O=C(NCCCNc1nc(Nc2cccc(CN3CCOCC3)c2)ncc1C1CC1)C1CCC1 | – | – | – | Active | Active | Active | Active | – |
| O=C(Nc1ccc(-n2ccc3cnc(Nc4cccc(CN5CCOCC5)c4)nc32)nc1)C1CCC1 | 1.8 | < 0 | < 0 | – | – | – | – | – |
| O=C(NCCCn1cc(C2CC2)c2cnc(Nc3cccc(CN4CCOCC4)c3)nc21)C1CCC1 | < 0 | < 0 | < 0 | – | – | – | – | – |
| CN1CCN(Cc2cccc(Nc3ncc4ccn(CCCNC(=O)C5CCC5)c4n3)c2)CC1 | 72.6 | 44.5 | -3.2 | – | – | – | – | 53.6 |
| O=C(NCc1cccc(-n2ccc3cnc(Nc4cccc(CN5CCOCC5)c4)nc32)c1)C1CCC1 | 72.8 | 15.7 | < 0 | – | – | – | – | – |
| O=C(NCCCn1cc(Cl)c2cnc(Nc3cccc(CN4CCOCC4)c3)nc21)C1CCC1 | 91 | 55.8 | 9.6 | – | – | – | – | – |
| O=C(NCCCn1ccc2cnc(Nc3cccc(CN4CCOCC4)c3)nc21)C1CCC1 | 92.1 | 69.7 | 23.3 | – | – | – | – | 66.7 |
| Cc1cc(=O)n(CCCNC(=O)C2CCC2)c2nc(Nc3cccc(CN4CCOCC4)c3)ncc12 | < 0 | < 0 | < 0 | – | – | – | – | – |
